Reference: ChEMBL document CHEMBL1143748, “'Bridged' stilbene derivatives as selective cyclooxygenase-1 inhibitors” (Bioorg Med Chem, 2007)
pIC50: −log10 of the molar value.

Assays:
Aorta = experiment: Relaxing effect on guinea pig aorta ring assessed as reduction of force of contraction at 100 uM; type: functional, Cavia porcellus; design: scale not given: the % may be the effect or the level left
[1] = target: T1, Prostaglandin G/H synthase 2 (Homo sapiens, UniProt P35354); experiment: Inhibition of human recombinant COX2 by measuring PGE2
T1 sequence (P35354 whole entry): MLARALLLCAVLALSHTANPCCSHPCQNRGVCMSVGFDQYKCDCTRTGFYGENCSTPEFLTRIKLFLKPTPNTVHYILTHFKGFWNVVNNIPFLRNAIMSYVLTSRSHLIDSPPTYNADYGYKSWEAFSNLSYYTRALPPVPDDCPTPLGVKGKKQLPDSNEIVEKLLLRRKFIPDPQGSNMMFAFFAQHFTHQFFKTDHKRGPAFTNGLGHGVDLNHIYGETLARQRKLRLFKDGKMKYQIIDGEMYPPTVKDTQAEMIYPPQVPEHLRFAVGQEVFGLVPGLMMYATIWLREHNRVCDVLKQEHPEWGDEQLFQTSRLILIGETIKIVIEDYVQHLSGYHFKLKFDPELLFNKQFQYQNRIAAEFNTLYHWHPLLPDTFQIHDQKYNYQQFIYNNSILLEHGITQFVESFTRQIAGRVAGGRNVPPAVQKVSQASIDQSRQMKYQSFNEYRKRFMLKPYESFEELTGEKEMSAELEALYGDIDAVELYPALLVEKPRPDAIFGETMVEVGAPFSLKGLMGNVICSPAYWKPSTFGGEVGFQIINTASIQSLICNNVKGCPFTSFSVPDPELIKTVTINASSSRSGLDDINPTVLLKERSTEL

Ileum = experiment: Relaxing effect on guinea pig terminal ileum ring assessed as reduction of force of contraction at 100 uM; type: functional, Cavia porcellus; design: scale not given: the % may be the effect or the level left
[2] = target: T2, Prostaglandin G/H synthase 1 (Ovis aries, UniProt P05979); experiment: Inhibition of ovine COX1 by measuring PGE2
T2 sequence (P05979 whole entry): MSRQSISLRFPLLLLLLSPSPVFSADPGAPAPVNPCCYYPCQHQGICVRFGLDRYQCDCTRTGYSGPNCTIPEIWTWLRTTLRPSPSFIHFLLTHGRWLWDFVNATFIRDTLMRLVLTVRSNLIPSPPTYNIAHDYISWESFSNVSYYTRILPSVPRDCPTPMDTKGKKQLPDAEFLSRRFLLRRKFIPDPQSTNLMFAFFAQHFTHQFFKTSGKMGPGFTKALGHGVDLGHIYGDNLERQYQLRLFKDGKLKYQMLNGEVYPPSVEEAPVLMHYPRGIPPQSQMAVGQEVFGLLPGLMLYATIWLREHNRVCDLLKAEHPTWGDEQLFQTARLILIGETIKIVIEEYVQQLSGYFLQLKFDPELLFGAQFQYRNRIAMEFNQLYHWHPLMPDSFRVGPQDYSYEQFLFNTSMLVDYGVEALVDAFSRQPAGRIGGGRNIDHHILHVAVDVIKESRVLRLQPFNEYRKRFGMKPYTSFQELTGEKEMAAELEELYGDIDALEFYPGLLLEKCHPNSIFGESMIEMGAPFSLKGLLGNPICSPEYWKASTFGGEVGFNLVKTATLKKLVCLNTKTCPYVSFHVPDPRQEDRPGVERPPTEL

[3] = Relaxing effect on guinea pig arteria pulmonalis ring assessed as reduction of force of contraction at 100 uM; type: functional, Cavia porcellus; design: scale not given: the % may be the effect or the level left
[4] = Selectivity for ovine COX1 over human recombinant COX2

SMILES | Activity (Aorta) | pIC50 [1] | Activity (Ileum) | pIC50 [2] | Activity [3] | Ratio IC50 [4]
COc1ccccc1C1=Cc2ccccc2C1 | -35.72% | 4.21 | -40.89% | 6.34 | -26.08% | 135
C1=C(c2ccc3c(c2)OCO3)CCc2ccccc21 | – | < 4.00 | – | < 4.00 | – | –
COc1ccc(C2=Cc3ccccc3C2)c(OC)c1OC | -3.45% | 5.88 | -35.94% | 7.52 | -11.92% | 44.3
COc1ccc2c(c1)CCC(c1ccc(OC)c(OC)c1)=C2 | – | 7.52 | – | 6.42 | – | 0.079
C1=C(c2ccc3c(c2)OCO3)Cc2ccccc21 | -28.08% | < 4.00 | -51.74% | 4.89 | -19.82% | > 7.8
COc1ccc(C2=Cc3ccccc3CC2)cc1OC | -15.97% | < 4.00 | -45.34% | 4.21 | -41.45% | > 1.63
COc1ccc(C2=Cc3ccccc3CC2)c(OC)c1OC | – | 6.18 | – | 6.32 | – | 1.38
COc1ccc2c(c1)CCC(c1ccc(OC)c(OC)c1OC)=C2 | – | < 4.00 | – | 7.82 | – | > 6670
Oc1ccc(/C=C/c2cc(O)cc(O)c2)cc1 [RESVERATROL] | -55.15% | – | -64.77% | 6.27 | -53.56% | –
